Columns and labels:
D2 receptor [1] = biological target: T1, D2 receptor (Homo sapiens, UniProt P14416); assay: Agonist potency by [3H]thymidine incorporation (mitogenesis), D2; type: cell-based; conditions: [3H]thymidine incorporation; for Emax: >80% full agonist, read-out: D2 % Maxm Stim
T1 construct: expressed in transfected cells
Protocol: (§1) Potential as domaminergenic agonists was assayed by ^3H-thymidine incorporation by standard techniques.
(§2) The EC50 values thus indicate intrinsic activities or functional activities of these compounds. The value of % maximum stimulation indicates whether a compound is a partial agonist or full agonist. Generally, a value greater than 80% is considered as a full agonist and anything less than 80% is considered as a partial agonist.

D2 receptor [2] = biological target: T1, D2 receptor; assay: Binding affinity at cloned human D2 receptor, [3H]YM-09151-2 (CHOp-D2 cells)
Protocol: (§3) CHOp-cells (human receptors) are grown to confluence in a minimum essential medium (α MEM) containing 10% fetal calf serum, 0.05% pen-strep, and 600 μg/ml of G418. The cells are scraped from the 100 by 20 mm plates and centrifuged at 500. g for 5 min. The pellet is homogenized by polytron in 50 mM Tris-HCl, pH 7.7, and centrifuged at 27,000·G for 12 min. The pellet is resuspended in 50 mM Tris, D2 at 5 mg protein/ml, D3 at 1 mg protein/ml, and stored at −70° C. in 1-ml aliquots.
(§4) On the day of the experiment, CHOp-D2 or CHOp-D3 cells are thawed, resuspended in 50 mM Tris, and centrifuged at 27,000·G for 12 min. The pellet is then resuspended at 5 mg protein/80 ml (D2) and 1 mg protein/80 ml (D3) in 50 mM Tris containing 120 mM of NaCl, 5 mM of KCl, 1.5 mM of CaCl2, 4 mM of MgCl2, and 1 mM of EDTA, pH 7.4. […] Nonspecific binding is determined with 1 mM of chlorpromazine. The plates are incubated at 25° C. for 60 min before filtration and counted as usual. The filters are soaked in 0.1% PEI before filtering.

D3 receptor [3] = biological target: T2, D3 receptor (Homo sapiens, UniProt P35462); assay: Agonist potency by [3H]thymidine incorporation (mitogenesis), D3; type: cell-based; parameters: expressed in transfected cells; host or cells: CHOp-D3 cells; conditions: [3H]thymidine incorporation; for Emax: >80% full agonist, read-out: D3 % Maxm Stim
T2 sequence (P35462 whole entry): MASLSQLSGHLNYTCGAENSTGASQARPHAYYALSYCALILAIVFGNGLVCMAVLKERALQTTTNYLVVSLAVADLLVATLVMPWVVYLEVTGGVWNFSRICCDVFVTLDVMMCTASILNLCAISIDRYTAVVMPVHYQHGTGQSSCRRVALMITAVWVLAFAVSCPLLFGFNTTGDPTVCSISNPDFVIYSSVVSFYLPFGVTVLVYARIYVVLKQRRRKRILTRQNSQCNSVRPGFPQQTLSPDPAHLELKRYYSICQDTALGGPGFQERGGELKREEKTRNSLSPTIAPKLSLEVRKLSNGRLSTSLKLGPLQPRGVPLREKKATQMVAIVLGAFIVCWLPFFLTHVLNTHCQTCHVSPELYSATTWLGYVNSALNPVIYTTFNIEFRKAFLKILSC
Protocol: as §1, §2

5HT2C receptor = biological target: T3, 5HT2C receptor (Homo sapiens, UniProt P28335); assay: Binding affinity at cloned human 5HT2C receptor, [3H]Mesulergine
T3 construct: expressed in transfected cells
T3 sequence (P28335 33-458): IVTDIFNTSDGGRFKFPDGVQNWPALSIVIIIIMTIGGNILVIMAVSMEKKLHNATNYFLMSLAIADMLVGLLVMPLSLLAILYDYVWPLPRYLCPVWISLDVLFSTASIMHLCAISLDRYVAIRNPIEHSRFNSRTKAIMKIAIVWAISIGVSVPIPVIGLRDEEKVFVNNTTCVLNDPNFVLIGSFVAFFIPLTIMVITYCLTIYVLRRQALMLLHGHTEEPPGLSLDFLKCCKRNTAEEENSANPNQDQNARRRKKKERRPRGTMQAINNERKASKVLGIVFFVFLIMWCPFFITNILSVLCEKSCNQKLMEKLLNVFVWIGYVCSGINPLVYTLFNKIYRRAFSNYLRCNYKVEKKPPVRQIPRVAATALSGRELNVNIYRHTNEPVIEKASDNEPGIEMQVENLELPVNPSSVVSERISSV

5HT1A receptor = biological target: T4, 5HT1A receptor (Homo sapiens, UniProt P08908); assay: Binding affinity at cloned human 5HT1A receptor, [3H]8-OH-DPAT (HA7 cells)
T4 construct: expressed in transfected cells; host or cells: HA7 cells
T4 sequence (P08908 1-422): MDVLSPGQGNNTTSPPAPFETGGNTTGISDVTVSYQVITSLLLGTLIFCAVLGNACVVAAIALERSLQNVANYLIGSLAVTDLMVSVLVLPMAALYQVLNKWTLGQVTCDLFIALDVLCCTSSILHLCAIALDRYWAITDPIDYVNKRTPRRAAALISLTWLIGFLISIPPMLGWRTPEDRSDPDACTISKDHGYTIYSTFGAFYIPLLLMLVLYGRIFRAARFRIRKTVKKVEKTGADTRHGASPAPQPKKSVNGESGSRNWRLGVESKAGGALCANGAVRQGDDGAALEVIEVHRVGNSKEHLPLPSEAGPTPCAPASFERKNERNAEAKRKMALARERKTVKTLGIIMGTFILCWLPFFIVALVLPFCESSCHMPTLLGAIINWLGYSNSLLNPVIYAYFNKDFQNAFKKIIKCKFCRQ
Protocol: HA7 cells (human receptor) are grown to confluence in DMEM containing 10% fetal calf serum, 0.05% penicillin-streptomycin (pen-strep), and […] of G418. The cells are scraped from the 100 by 20 mm plates and centrifuged at 500·G for 5 min. The pellet is homogenized in 50 mM Tris-HCl, pH 7.7, with a polytron, centrifuged at 27,000·G and resuspended at 10 mg protein/ml in the same buffer. The homogenate is then stored at −70° C. in 1-ml aliquots.
The thawed cells are washed once and resuspended at 10 mg protein/80 ml in 25 mM Tris-HCl containing 100 μM of ascorbic acid and 10 mM of nialamide at pH 7.4. The assay is performed in triplicate in a 96-well plate. To 100 μl of [^3H]8-OH-DPAT (0.5 nM final conc), […] of test compound or buffer and 0.8 ml of cell homogenate (0.1 mg protein/well) is added to each well by a Tomtec Quadra 96. Nonspecific binding is defined using 1 μM dihydroergotamine. The plates are incubated at 25° C. for 60 min, then filtered. The incubation is terminated by rapid filtration through glass fiber filter paper on a Tomtec cell harvester. The filters are washed four times with ice-cold 50 mM Tris-HCl, pH 7.7, dried overnight, bagged with 10 ml scintillation cocktail before counting for 2 min. on a Wallac Betaplate 1205 liquid scintillation counter.

D3 receptor [4] = biological target: T2, D3 receptor; assay: Inhibition constants for binding to cloned D3 receptor expressed in HEK cells, [3H]spiperone; conditions: D3 expressed in HEK cells
Protocol: (§5) Inhibition constants for binding to cloned D2L and D3 receptors expressed in HEK cells by displacing [^3H] spiperone were measured for several compounds.

5HT2A receptor = biological target: T5, 5HT2A receptor (Homo sapiens, UniProt P28223); assay: Binding affinity at cloned human 5HT2A receptor, [3H]Ketanserin
T5 construct: expressed in transfected cells
T5 sequence (P28223 whole entry): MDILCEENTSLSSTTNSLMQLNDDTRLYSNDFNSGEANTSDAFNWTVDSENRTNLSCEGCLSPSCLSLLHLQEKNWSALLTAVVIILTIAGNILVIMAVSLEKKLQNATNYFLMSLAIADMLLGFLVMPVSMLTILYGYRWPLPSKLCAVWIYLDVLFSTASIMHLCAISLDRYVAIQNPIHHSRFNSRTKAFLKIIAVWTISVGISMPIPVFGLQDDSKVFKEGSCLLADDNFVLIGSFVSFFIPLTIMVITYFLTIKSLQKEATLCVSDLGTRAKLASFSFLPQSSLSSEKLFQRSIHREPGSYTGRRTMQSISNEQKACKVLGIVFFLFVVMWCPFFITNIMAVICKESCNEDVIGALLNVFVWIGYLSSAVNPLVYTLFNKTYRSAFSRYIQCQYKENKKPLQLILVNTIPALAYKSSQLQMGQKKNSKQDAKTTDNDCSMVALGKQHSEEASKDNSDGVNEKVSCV

D2L receptor = biological target: T6, D2L receptor (Homo sapiens, UniProt P14416); assay: Inhibition constants for binding to cloned D2L receptor expressed in HEK cells, [3H]spiperone
T6 construct: expressed in transfected cells; host or cells: HEK cells
T6 sequence (P14416 whole entry): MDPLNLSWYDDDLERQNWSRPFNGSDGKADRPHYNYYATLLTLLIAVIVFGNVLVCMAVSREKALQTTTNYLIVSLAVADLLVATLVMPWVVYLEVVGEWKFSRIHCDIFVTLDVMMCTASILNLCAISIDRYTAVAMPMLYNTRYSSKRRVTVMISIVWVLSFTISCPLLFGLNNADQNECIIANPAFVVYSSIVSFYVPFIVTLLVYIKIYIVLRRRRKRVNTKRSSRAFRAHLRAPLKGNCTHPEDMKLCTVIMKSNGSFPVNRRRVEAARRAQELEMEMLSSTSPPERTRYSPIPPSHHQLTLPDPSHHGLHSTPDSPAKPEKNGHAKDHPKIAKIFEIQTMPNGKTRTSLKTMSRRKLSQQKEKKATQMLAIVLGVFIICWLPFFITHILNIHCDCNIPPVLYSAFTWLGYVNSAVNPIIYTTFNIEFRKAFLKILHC
Protocol: as §5

D1 receptor = biological target: T7, D1 receptor (Homo sapiens, UniProt P21728); assay: Binding affinity at cloned human D1 receptor, [3H]SCH23390 (LHD1 cells)
T7 construct: expressed in transfected cells; host or cells: LHD1 cells
T7 sequence (P21728 whole entry): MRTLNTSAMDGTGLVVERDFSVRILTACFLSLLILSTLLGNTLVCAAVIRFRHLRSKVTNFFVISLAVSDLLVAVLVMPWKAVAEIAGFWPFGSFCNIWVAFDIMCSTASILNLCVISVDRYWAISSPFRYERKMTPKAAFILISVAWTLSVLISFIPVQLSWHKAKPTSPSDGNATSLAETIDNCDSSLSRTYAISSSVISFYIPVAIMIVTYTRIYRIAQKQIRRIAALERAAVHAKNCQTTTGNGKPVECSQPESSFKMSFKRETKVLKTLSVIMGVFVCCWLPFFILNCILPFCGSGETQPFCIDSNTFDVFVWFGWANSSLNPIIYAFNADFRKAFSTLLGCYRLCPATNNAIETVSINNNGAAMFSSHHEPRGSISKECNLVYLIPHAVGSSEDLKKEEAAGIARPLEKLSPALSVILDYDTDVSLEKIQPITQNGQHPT
Protocol: LHD1 cells (human receptor) are grown and prepared as described for the HA7 cells as described hereafter. The final pellet is resuspended at 5 mg protein/80 ml in 50 mM Tris-HCl containing 120 mM of NaCl, 5 mM of KCl, 2 mM of CaCl2, and 1 mM of MgCl2, pH 7.4. To wells containing 100 μl of test drug or buffer and […] of [^3H]SCH 23390 (0.18 nM final conc.), is added 0.8 ml of cell homogenate (0.05 mg protein/well), and the plates are incubated at […] for 60 min. Nonspecific binding is determined with 1 μM of SCH 23390.

D3 receptor [5] = biological target: T2, D3 receptor; assay: Binding affinity at cloned human D3 receptor, [3H]YM-09151-2 (CHOp-D3 cells); parameters: expressed in transfected cells; host or cells: CHOp-D3 cells; conditions: for Ki: cloned human D3; for D2/D3: ratio of Ki D2 to Ki D3, [3H]YM-09151-2 protocol of Table 4
Protocol: as §3, §4

D3 receptor [6] = biological target: T2, D3 receptor; assay: Binding affinity at cloned human D3 receptor, [3H]Spiperone (Table 5); parameters: expressed in transfected cells; host or cells: CHOp-D3 cells; conditions: for activity at the D3 receptor: Table 5; for Ki: cloned human D3, Table 5
D2 receptor [7] = biological target: T1, D2 receptor; assay: Binding affinity at cloned human D2 receptor, [3H]Spiperone (Table 5); conditions: for affinity for the D2 receptor: Table 5; for Ki: cloned human D2, Table 5

T1 sequence (P14416 whole entry): as the sequence (P14416 whole entry) above

SMILES | EC50 (D2 receptor [1]) [nM] | Emax (D2 receptor [1]) [%] | Ki (D2 receptor [2]) [nM] | EC50 (D3 receptor [3]) [nM] | Emax (D3 receptor [3]) [%] | Ki (5HT2C receptor) [nM] | Ki (5HT1A receptor) [nM] | Ki (D3 receptor [4]) [nM] | Ki (5HT2A receptor) [nM] | Ki (D2L receptor) [nM] | Ki (D1 receptor) [nM] | Ki (D3 receptor [5]) [nM] | D2/D3 (D3 receptor [5]) | selectivity for D3 relative to the standard 7-OH-DPAT (D3 receptor [5]; protocol used in Table 4) | activity at the D3 receptor (D3 receptor [6]) | Ki (D3 receptor [6]) [nM] | affinity for the D2 receptor (D2 receptor [7]) | Ki (D2 receptor [7]) [nM]
C#CCN(CCN1CCN(c2ccccc2)CC1)C1CCc2ccc(O)cc2C1 (centres unmarked) [Compound 12a, 7-Hydroxy-1-2-[N-propargyl-(N-(4-phenylpiperazin-1-yl)-ethyl)amino]tetralin] | 6.18 ± 0.18 | 87.2 ± 2.16 | 65.5 | 1.25 ± 0.08 | 94.5 ± 6.17 | 2690 | 27.6 | 14.2 ± 1.7 | 161 | 245 ± 26 | 663 | 23.5 | 2.8 | – | – | – | – | –
CCCN(CCN1CCN(c2ccccc2)CC1)C1CCc2ccc(O)cc2C1 (centres unmarked) [Compound 15a, 7-Hydroxy-2-[N-propyl-(N-(4-phenylpiperazin-1-yl)-ethyl)amino]tetralin] | 1.59 ± 0.06 | 105 ± 11.3 | 75.5 | 0.97 ± 0.02 | 84.6 ± 10.8 | > 10000 | 21.4 | 1.75 ± 0.34 | 1540 | 213 ± 26 | > 10000 | 3.2 | 25 | more than two fold | – | – | – | –
CCCN(CCCCN1CCN(c2cccc(Cl)c2Cl)CC1)C1CCc2ccc(O)cc2C1 (centres unmarked) [Compound 19a, 7-Hydroxy-2-[N-propyl-(N-(4-(2,3-dichlorophenyl)-piperazin-1-yl)-butyl)amino]tetralin] | 8.31 ± 0.69 | 80.1 ± 8.15 | 31.5 | 6.49 ± 2.46 | 85.7 ± 1.19 | 639 | 40.6 | 2.26 ± 0.5 | 356 | 8.78 ± 0.81 | 4060 | 2.66 | 15 | – | – | – | – | –
C#CCN(CCCCN1CCN(c2cccc(Cl)c2Cl)CC1)C1CCc2ccc(O)cc2C1 (centres unmarked) [Compound 19b, 7-Hydroxy-2-[N-propargyl-(N-(4-(2,3-dichlorophenyl)-piperazin-1-yl)-butyl)amino]tetralin] | 11.8 ± 1.84 | 85.7 ± 9.15 | 28.1 | 3.08 ± 1.09 | 90.3 ± 15.5 | 264 | 64.4 | 3.59 ± 0.58 | 160 | 7.37 ± 0.27 | 1720 | 12.7 | 2.3 | – | – | – | – | –
CCCN(CCc1ccc(N)cc1)CCN1CCN(c2ccccc2)CC1 [Compound 29a, 4-(2-{[2-(4-Phenyl-piperazin-1-yl)-ethyl]-propyl-amino}-ethyl)-phenylamine] | – | – | – | – | – | – | – | – | – | – | – | – | – | – | some activity | 1150 | exceptionally low affinity | 25600
CCCN(CCc1cccc(N)c1)CCN1CCN(c2ccccc2)CC1 [Compound 29b, 3-(2-{[2-(4-Phenyl-piperazin-1-yl)-ethyl]-propyl-amino}-ethyl)-phenylamine] | – | – | – | – | – | – | – | – | – | – | – | – | – | – | some activity | 1480 | exceptionally low affinity | 23500
CCCN(CCc1ccc(NS(=O)(=O)c2ccc(Cl)cc2)cc1)CCN1CCN(c2ccccc2)CC1 [Compound 30a, 4-Chloro-N-[4-(2-{[2-(4-phenyl-piperazin-1-yl)-ethyl]-propyl-amino}-ethyl)-phenyl]-benzenesulfonamide] | – | – | – | – | – | – | – | – | – | – | – | – | – | – | – | 5.98 ± 0.7 | – | 702 ± 22
CCCN(CCc1cccc(NS(=O)(=O)c2ccc(Cl)cc2)c1)CCN1CCN(c2ccccc2)CC1 [Compound 30b, 4-Chloro-N-[3-(2-{[2-(4-phenyl-piperazin-1-yl)-ethyl]-propyl-amino}-ethyl)-phenyl]-benzenesulfonamide] | – | – | – | – | – | – | – | – | – | – | – | – | – | – | – | 36.8 ± 5.4 | – | 552 ± 31
